These results are taken from publication PMC8574157 (Journal of chemical information and modeling, 2021).

Read-outs that look alike come from different tables or passages of the source. Bounds are passed on as bounds.

One data set is described as follows: in vitro. The following applies: human.
A further data set has as its system YFV 17D strain. In words: microbe, parasite or virus in culture. Format: cell-based, yellow fever virus.
The next data set has as its target polymerase for YFV (Yellow fever virus, UniProt P03314). Format: biochemical.
The target in a further data set is protease for YFV (Yellow fever virus, UniProt P03314). Format: biochemical.
protease for YFV, sequence (P03314 1485-2107 limits assumed): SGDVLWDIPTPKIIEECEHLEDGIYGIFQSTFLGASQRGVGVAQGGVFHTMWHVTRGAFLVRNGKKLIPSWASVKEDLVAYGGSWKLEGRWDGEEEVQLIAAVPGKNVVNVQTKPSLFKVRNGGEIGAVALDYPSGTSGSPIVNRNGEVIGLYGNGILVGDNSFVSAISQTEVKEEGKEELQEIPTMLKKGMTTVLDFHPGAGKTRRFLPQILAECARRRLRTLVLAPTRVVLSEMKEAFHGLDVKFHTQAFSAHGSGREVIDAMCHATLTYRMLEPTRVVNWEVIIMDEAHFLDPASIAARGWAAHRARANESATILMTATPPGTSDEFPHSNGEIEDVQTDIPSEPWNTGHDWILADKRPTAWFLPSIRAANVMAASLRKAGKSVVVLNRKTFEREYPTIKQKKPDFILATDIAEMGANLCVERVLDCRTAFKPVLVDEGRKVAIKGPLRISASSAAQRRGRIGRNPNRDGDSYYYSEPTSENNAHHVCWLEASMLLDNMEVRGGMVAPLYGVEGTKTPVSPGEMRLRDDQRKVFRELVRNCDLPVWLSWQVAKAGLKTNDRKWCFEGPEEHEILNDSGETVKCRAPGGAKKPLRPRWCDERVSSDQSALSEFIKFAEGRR
protease for YFV, sequence (P03314 1355-1484 partner limits assumed): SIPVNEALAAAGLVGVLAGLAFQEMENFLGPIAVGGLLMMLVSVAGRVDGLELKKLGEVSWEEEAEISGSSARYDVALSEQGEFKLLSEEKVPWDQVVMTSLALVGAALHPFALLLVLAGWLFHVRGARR
[1] abbreviates: Yellow fever virus, Huh-7, read-out: EC50 (Neutral Red).
Where [2] appears, read: Yellow fever virus, Huh-7, read-out: EC50 (Visual).

polymerase for YFV, sequence (P03314 2507-3411 limits assumed): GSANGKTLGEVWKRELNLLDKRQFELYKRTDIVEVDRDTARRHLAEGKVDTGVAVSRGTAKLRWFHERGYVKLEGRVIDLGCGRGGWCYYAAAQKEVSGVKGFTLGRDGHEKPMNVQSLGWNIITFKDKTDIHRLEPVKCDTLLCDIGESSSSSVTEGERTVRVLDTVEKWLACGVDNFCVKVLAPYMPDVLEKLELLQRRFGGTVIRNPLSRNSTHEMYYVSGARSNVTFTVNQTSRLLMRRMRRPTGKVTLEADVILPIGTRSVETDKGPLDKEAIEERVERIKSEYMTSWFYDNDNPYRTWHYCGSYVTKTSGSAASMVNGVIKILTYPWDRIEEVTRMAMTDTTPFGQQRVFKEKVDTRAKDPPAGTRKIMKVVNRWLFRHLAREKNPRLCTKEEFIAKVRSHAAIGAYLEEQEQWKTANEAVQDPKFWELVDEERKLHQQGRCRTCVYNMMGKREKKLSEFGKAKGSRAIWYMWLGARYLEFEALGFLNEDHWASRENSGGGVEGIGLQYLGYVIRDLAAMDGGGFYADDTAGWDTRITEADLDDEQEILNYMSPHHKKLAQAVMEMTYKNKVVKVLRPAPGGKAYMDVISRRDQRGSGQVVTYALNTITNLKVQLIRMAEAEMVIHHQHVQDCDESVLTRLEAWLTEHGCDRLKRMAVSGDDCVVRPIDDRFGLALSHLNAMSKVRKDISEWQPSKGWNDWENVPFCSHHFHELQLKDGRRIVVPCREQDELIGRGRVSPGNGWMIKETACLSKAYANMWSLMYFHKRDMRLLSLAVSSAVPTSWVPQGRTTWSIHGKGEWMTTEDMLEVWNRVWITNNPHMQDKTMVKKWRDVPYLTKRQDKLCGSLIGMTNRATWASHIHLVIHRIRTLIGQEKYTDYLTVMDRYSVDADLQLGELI

For orientation: EC50 means the concentration giving half of the maximal effect. On to `CCn1nc(C(=O)O)c(=O)c2cc3c(cc21)OCO3` [Cinoxacin], for which the CC50 in “in vitro” (CC50 (Neutral Red)) and in “in vitro” (CC50 (Visual)) was greater than 100 µM throughout. The EC50 in the data set on YFV 17D strain (setting [1]) and with YFV 17D strain (setting [2]) was greater than 100 µM each time.

Regarding `O=C1[C@H](CC[C@H](O)c2ccc(F)cc2)[C@@H](c2ccc(O)cc2)N1c1ccc(F)cc1` [Ezetimibe], the CC50 worked out at 29 µM in the data set “in vitro” (CC50 (Neutral Red)) and 32 µM in the data set “in vitro” (CC50 (Visual)). Also, the concentration for a half-maximal effect (EC50) in the data set with YFV 17D strain (setting [1]) was greater than 29 µM; in the data set with YFV 17D strain (setting [2]), greater than 32 µM.

As to `Fc1ccc([C@@H]2CCNC[C@H]2COc2ccc3c(c2)OCO3)cc1` [Paroxetine], the CC50 came out at 3.1 µM in “in vitro” (CC50 (Neutral Red)) and 3.2 µM in “in vitro” (CC50 (Visual)). Besides, the concentration for a half-maximal effect (EC50) in the data set with YFV 17D strain (setting [1]) was greater than 3.1 µM; in the data set on YFV 17D strain (setting [2]), greater than 3.2 µM.

With `Oc1ccc(-c2nc(-c3ccncc3)c(-c3ccc(F)cc3)[nH]2)cc1` [SB202190], the CC50 in “in vitro” (CC50 (Neutral Red)) and in the data set “in vitro” (CC50 (Visual)) was greater than 100 µM each time. For the same compound, the EC50 with YFV 17D strain (setting [1]) and with YFV 17D strain (setting [2]) was greater than 100 µM each time.

As for “N-{4-cyano-5-[(4-fluorophenyl)amino]-1H-pyrazol-3-yl}naphthalene-2-sulfonamide [Compound 11626003]”, the “activity against the polymerase for YFV” value on polymerase for YFV is reported as “not active”. The “activity against the protease for YFV” value at protease for YFV was “not active”. For the same compound, the EC50 came out at 3.3 µM in the data set on YFV 17D strain (read-out: EC50 (Neutral Red)) and 3.2 µM with YFV 17D strain (read-out: EC50 (Visual)).
